How the values were obtained:
S1P1 [1] = target: T1, S1P1 (Homo sapiens, UniProt P21453); experiment: S1P1 agonist test, S1P1 CRE-bla CHO cells; format: cell-based; conditions: S1P1 CRE-BLA CHO cell line
Procedure: (§1) Since AD2900 is a sphingolipid analogue with properties that resemble those of S1P, we intended to examine its ability to interact with the S1P receptors. To delineate whether AD2900 can function as an agonistic or antagonistic compound to any of the S1P receptors, we used a high-throughput screening cell-based assay, employing cell lines stably transfected with human S1P receptors 1, 2, 3, 4, or 5 [37]. In this experiment, a compound with an IC50 or EC50 value ≤10 μM for a certain S1P receptor is considered active as an antagonist or an agonist, respectively. The results illustrate that AD2900 acts as an antagonist to all S1P receptors (Table 1, Supplementary Figure 3). […] No agonist activation was evident.
(§2) The S1P1 agonist test and S1P2, S1P3, S1P4, and S1P5 agonist and antagonist tests were conducted as previously described using S1P1 CRE-bla CHO cells, S1P2 CRE-bla CHO cells, S1P3 NFAT-bla CHO cells, Tango™ S1P4 (EDG6)-bla U-2 OS cells, and Tango™ S1P5 ([…])-bla U-2 OS cells. The S1P1 antagonist assay was carried out according to the manufacturer’s instructions using a Tango™ S1P1 (EDG1)-bla U-2 OS Cell-Based Assay (Invitrogen, NY, USA).

S1P2 = target: T2, S1P2 (Homo sapiens, UniProt O95136); experiment: S1P2 agonist test, S1P2 CRE-bla CHO cells; format: cell-based; conditions: S1P2 CRE-BLA CHO cell line
T2 construct: expressed in transfected cells; host or cells: S1P2 CRE-bla CHO cells
T2 sequence (O95136 whole entry): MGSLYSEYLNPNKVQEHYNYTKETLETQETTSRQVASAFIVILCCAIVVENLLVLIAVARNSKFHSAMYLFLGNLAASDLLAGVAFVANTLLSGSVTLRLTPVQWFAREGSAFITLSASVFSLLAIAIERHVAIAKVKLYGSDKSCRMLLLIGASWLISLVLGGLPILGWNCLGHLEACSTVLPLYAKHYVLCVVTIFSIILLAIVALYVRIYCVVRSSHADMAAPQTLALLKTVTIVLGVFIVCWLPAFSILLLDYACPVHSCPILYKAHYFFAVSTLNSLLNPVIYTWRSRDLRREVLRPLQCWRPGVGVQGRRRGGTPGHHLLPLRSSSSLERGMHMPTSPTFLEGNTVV
Procedure: as §1, §2

S1P3 = target: T3, S1P3 (Homo sapiens, UniProt Q99500); experiment: S1P3 antagonist test, S1P3 NFAT-bla CHO cells; format: cell-based; conditions: S1P3 NFAT-BLA CHO cell line
T3 construct: expressed in transfected cells; host or cells: S1P3 NFAT-bla CHO cells
T3 sequence (Q99500 whole entry): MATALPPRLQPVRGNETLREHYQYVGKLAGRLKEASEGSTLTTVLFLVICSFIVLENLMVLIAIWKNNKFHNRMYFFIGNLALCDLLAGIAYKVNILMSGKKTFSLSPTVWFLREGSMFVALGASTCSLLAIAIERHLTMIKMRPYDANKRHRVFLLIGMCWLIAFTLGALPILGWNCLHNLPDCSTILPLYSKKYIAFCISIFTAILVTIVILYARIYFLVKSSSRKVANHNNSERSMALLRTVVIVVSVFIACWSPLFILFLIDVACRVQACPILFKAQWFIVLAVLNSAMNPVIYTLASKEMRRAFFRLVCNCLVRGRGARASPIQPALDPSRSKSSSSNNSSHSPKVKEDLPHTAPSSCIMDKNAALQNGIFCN
Procedure: as §1, §2

CEM/C1 = experiment: XTT viability assay, CEM/C1; format: cell-based, human; conditions: 1-day treatment, compared with Jurkat (>10 μM)
Procedure: (§3) Figure 1 AD2900 inhibits human lymphocyte proliferation in allogeneic activation (A, B) The levels of proliferative response of human peripheral blood lymphocytes (PBMCs) after 1-day pretreatment with different concentrations of AD2900, AD2750, YZ138, YZ158, and YZ297 (A) or AD2900, FTY720, and SEW2871 (B) were tested by human allogeneic mixed lymphocyte reaction (MLR) assay, followed by a [3H] thymidine incorporation analysis. (C) Apoptosis of AD2900-treated activated PBMCs was tested by AnnexinV-propidium iodide (PI) FACS analysis following 1-day AD2900 pretreatment and MLR. All the samples were compared to the untreated PBMC control. (D) IFN-γ secretion from activated PBMCs was tested by ELISA following a 1-day AD2900 pretreatment in MLR. On the 5th day of hMLR, supernatants were collected and assayed for the level of IFN-γ. (E) Jurkat cell viability after a 1-day treatment with different concentrations of AD2900, FTY720, and SEW2871 was tested by XTT viability assay. (F) H9, CEM/C1, and Molt4 cell viability after a 1-day treatment with different concentrations of AD2900 was tested by XTT viability assay. Graphs summarize the results of at least three independent experiments. Results of Student’s t-test: *(P < 0.05, two-tailed test), ** (P < 0.01, two-tailed test), *** (P < 0.001, two-tailed test), **** (P < 0.0001, two-tailed test). […]

H9 = experiment: XTT viability assay, H9; format: cell-based, human; conditions: 1-day treatment, compared with Jurkat (>10 μM)
Procedure: as §3

CCR7-expressing PBMCs = experiment: CCR7 surface expression on PBMCs, FACS; format: cell-based, human; conditions: 100 nM, 30-min treatment
Procedure: Figure 3 AD2900 downregulates the percentage of S1P1- and CCR7-expressing cells in PBMCs (A, B) The percentages of S1P1-positive PBMCs after the treatment with different concentrations of AD2900, FTY720, or SEW2871 and at different time points were examined by FACS analysis. S1P1 expression was tested in PBMCs after a 30-min treatment with AD2900 at different concentrations (A) or after a 30-min or 60-min treatment with 100 nM AD2900, FTY720, or SEW2871 (B). (C) The percentage of CCR7-positive PBMCs was tested by FACS analysis after a 30-min treatment with 100 nM AD2900, FTY720, or SEW2871. All the significances are compared to untreated PBMCs. Results summarize the results of at least four independent experiments. Results of Student’s t-test: *(P < 0.05, two-tailed test), ** (P < 0.01, two-tailed test), *** (P < 0.001, two-tailed test), **** (P < 0.0001, two-tailed test).
CCR7 is known as a lymph node homing receptor, and it is also involved in lymphocyte recirculation. Together with S1P1, CCR7 controls the circulation of lymphocytes between the SLOs and the blood or lymph. We therefore examined the effect of AD2900 on the level of CCR7-surface-expressing PBMCs.
Human PBMCs: For the apoptosis test, anti-AnnexinV-FITC (BD Biosciences, CA, USA) was used. […]

[2] = parameters: method as in unpublished data; conditions: previous studies; ref unpublished data; cited from earlier work
S1P1 [3] = target: T1, S1P1; experiment: S1P1 antagonist assay, Tango S1P1 (EDG1)-bla U-2 OS cells; format: cell-based; parameters: Tango fusion partner (protease site + GAL4-VP16 transcription factor); host or cells: Tango S1P1 (EDG1)-bla U-2 OS cells; conditions: S1P1 TANGO U-2 OS cell line
Procedure: as §1, §2

T1 sequence (P21453 whole entry): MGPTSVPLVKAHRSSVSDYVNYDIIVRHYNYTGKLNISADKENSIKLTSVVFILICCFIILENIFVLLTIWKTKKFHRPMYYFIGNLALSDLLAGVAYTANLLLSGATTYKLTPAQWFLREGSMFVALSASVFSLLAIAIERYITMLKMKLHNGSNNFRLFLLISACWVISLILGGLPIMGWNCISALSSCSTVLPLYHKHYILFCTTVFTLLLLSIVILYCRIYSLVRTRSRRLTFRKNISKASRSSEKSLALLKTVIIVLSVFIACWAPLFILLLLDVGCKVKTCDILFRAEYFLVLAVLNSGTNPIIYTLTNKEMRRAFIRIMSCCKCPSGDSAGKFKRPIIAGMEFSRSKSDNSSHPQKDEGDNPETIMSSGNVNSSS

With `CCCCCCCCCCCCCCCCNC(CO)(CO)CO` [AD2900] the EC50 (S1P1 [1]) was > 50 µM, the EC50 (S1P2) was > 50 µM and the IC50 (S1P3) was 6.2 µM. For the same molecule, the “cell viability, CEM/C1” value (CEM/C1) was “reduced cell viability could be detected even at lower concentrations”, the “cell viability, H9” value (H9) was “reduced cell viability could be detected even at lower concentrations” and the “reduction of the normal percentage of CCR7-expressing cell population” value (CCR7-expressing PBMCs) was 22% ± 5%. For the same molecule, the “lethal dose 50% (LD50)” value [2] was “above 100 mg/kg” and the IC50 (S1P1 [3]) was 3.8 µM.

— publication PMC5581131, “The novel sphingosine-1-phosphate receptors antagonist AD2900 affects lymphocyte activation and inhibits T-cell entry into the lymph nodes” (Oncotarget, 2017)
